# Results taken from patent US4301177A, “(3-Methyl-2-butenyl)propanedioic acid mono (1,2-diphenylhydrazide) and salts thereof” (Istituto de Angeli S.p.A., priority 1979, dated 1981).
# Counter-ions that a name gives are not always drawn.
# Assays:
# rats [1] = assay: Analgesic-anti-inflammatory activity, Randall and Selitto, brewer's yeast inflamed paw in rats (Table IV); assay type: in vivo, male Sprague-Dawley rats
# Protocol: (§1) In the present study the test compounds were administered perorally by means of a stomach tube as an aqueous suspension in 5% acacia gum at a constant volume of 10 ml/kg to male Swiss mice and male Sprague-Dawley rats. Control rats and mice were given a corresponding volume of the aqueous suspension medium. The results were statistically evaluated by Dunnett's test (C. V. Dunnett.: J.A. Stat. Ass., 40, 1096, 1955).
# 4. Analgesic-anti-inflammatory activity
# The analgesic-anti-inflammatory activity was evaluated in rats by the method of Randall and Selitto (Arch. Int. Pharmacodyn., 111, 409, 1957), using an analgesimeter to measure the minimum load that must be applied to a rat's hind paw to elicit a painful stimulus.
# Both the controls and the experimental rats were injected into the right hind paw with 0.1 ml of 20% brewer's yeast in sterile saline immediately before the administration of the test compound.
# The volume of the inflamed right hind paw was measured 1, 2 and 4 hours after the administration of the test compound.
# The analgesic-anti-inflammatory activity was evaluated using an "analgesic index" expressed as a ratio between the sum of the average weights (grams) necessary to provoke a painful stimulus at different times in treated and control animals.
# mice = assay: Analgesic activity, hot plate test in mice (Table III); assay type: in vivo, male Swiss mice
# Protocol: as §1
# The analgesic activity was evaluated in mice by the hot plate test according to Janssen and Jageneau (J.Pharm.Pharmac., 9, 381, 1957).
# The plate temperature was kept constant at 55° C.; the reaction time was determined before and 30, 60, 90 and 120 minutes after oral administration of the test compound. Average values after administration of the test compound were compared to those obtained before treatment.
# rats [2] = assay: Antipyretic activity, fever induced by brewer's yeast in rats (Table V); assay type: in vivo, male Sprague-Dawley rats
# Protocol: as §1
# The antipyretic activity was investigated in rats by the method of Niemegeers et al. (see Arzneim.Forsch. 25, 1519, 1975). The rectal temperature was measured immediately before and 4 hours after the subcutaneous injection of 1 ml/100 g body weight of a 15% brewer's yeast suspension in 1% acacia gum.
# The test compound was administered orally to groups of 5 different rats per dose 4 hours after the yeast injection. The rectal temperature was measured 0.5, 1, 1.5, 2, 2.5, 3 and 19 hours after treatment.
# (§2) Average values of the temperatures obtained in the treated rats were compared with those of control rats.
# rats [3] = assay: Effect on arthritis induced in rats by Freund's adjuvant (Table II); assay type: in vivo, male Sprague-Dawley rats; conditions: day 20
# rats [4] = assay: Effect on normal temperature of rats (Table VI); assay type: in vivo, male Sprague-Dawley rats
# Protocol: as §1
# 6. Effect on normal temperature of rats
# The rectal temperature was measured at 30-minute intervals before and after administration of the test compound, that is, at -1.5, -1, -0.5, 0.5, 1, 1.5 and 2 hours, using groups of 10 rats each for each dosage level.
# as §2
# rats [5] = assay: Ulcerogenic effect, gastric lesions in rats (Table VIII); assay type: in vivo, male Sprague-Dawley rats; conditions: single dose; for % animals with gastric lesions: 16 h
# Protocol: as §1
# The ulcerogenic effect was determined in rats by the method of Niemegeers et al. (Arzneimittel-Forschung 25, 1537, 1975). A single oral dose was administered to groups of 15 rats fasted for 9 hours before treatment and kept fasting throughout the whole experimental period. The animals were sacrificed 16 hours after treatment; the severity of lesions was scored according to an arbitrary scale ranging from + to ++++. For each group of rats, an ulcerogenic index was calculated according to Pauls et al., (Gastroenterology 8, 774, 1947).
smiles,measurement,setting,value
"CCCCC(C(=O)O)C(=O)N(Nc1ccccc1)c1ccccc1 (centres unmarked) [B, Calcium salt of butylpropanedioic acid mono(1,2-diphenylhydrazide), reference compound]",Mean of the weights eliciting painful stimulus,"rats [1]; 40 mg/kg oral, 1 h",145.0 grams
same,Mean of the weights eliciting painful stimulus,"rats [1]; 40 mg/kg oral, 2 h",108.8 grams
same,Mean of the weights eliciting painful stimulus,"rats [1]; 40 mg/kg oral, 4 h",105.0 grams
same,Mean of the weights eliciting painful stimulus,"rats [1]; 80 mg/kg oral, 1 h",140 grams
same,Mean of the weights eliciting painful stimulus,"rats [1]; 80 mg/kg oral, 2 h",128.8 grams
same,Mean of the weights eliciting painful stimulus,"rats [1]; 80 mg/kg oral, 4 h",110.0 grams
same,Mean of the weights eliciting painful stimulus,"rats [1]; 160 mg/kg oral, 1 h",142.8 grams
same,Mean of the weights eliciting painful stimulus,"rats [1]; 160 mg/kg oral, 2 h",161.2 grams
same,Mean of the weights eliciting painful stimulus,"rats [1]; 160 mg/kg oral, 4 h",140.0 grams
same,Reaction time,"mice; 50 mg/kg oral, 0 (before administration)",14.00 ± 3.80 s
same,Reaction time,"mice; 50 mg/kg oral, 30 min",16.50 ± 3.60 s
same,Reaction time,"mice; 100 mg/kg oral, 0 (before administration)",14.30 ± 2.67 s
same,Reaction time,"mice; 100 mg/kg oral, 90 min",17.10 ± 4.48 s
same,Reaction time,"mice; 100 mg/kg oral, 120 min",16.10 ± 2.56 s
same,Reaction time,"mice; 200 mg/kg oral, 0 (before administration)",12.90 ± 2.92 s
same,Rectal temperature,"rats [2]; 40 mg/kg oral, 0 h (4 h after yeast, before treatment)",38.08 °C
same,Rectal temperature,"rats [2]; 40 mg/kg oral, 0.5 h",38.05 °C
same,Rectal temperature,"rats [2]; 40 mg/kg oral, 1 h",38.20 °C
same,Rectal temperature,"rats [2]; 40 mg/kg oral, 1.5 h",38.09 °C
same,Rectal temperature,"rats [2]; 40 mg/kg oral, 2 h",38.17 °C
same,Rectal temperature,"rats [2]; 40 mg/kg oral, 2.5 h",38.45 °C
same,Rectal temperature,"rats [2]; 40 mg/kg oral, 3 h",38.01 °C
same,Rectal temperature,"rats [2]; 40 mg/kg oral, 19 h",37.28 °C
same,Rectal temperature,"rats [2]; 40 mg/kg oral, -4 h (before yeast)",36.74 °C
same,Rectal temperature,"rats [2]; 80 mg/kg oral, 0 h (4 h after yeast, before treatment)",38.02 °C
same,Rectal temperature,"rats [2]; 80 mg/kg oral, 0.5 h",37.10 °C
same,Rectal temperature,"rats [2]; 80 mg/kg oral, 1 h",37.38 °C
same,Rectal temperature,"rats [2]; 80 mg/kg oral, 1.5 h",37.48 °C
same,Rectal temperature,"rats [2]; 80 mg/kg oral, 2 h",37.65 °C
same,Rectal temperature,"rats [2]; 80 mg/kg oral, 2.5 h",37.96 °C
same,Rectal temperature,"rats [2]; 80 mg/kg oral, 3 h",37.80 °C
same,Rectal temperature,"rats [2]; 80 mg/kg oral, 19 h",37.44 °C
same,Rectal temperature,"rats [2]; 80 mg/kg oral, -4 h (before yeast)",36.96 °C
same,Rectal temperature,"rats [2]; 160 mg/kg oral, 0 h (4 h after yeast, before treatment)",38.52 °C
same,Rectal temperature,"rats [2]; 160 mg/kg oral, 0.5 h",37.89 °C
same,Rectal temperature,"rats [2]; 160 mg/kg oral, 1 h",37.81 °C
same,Rectal temperature,"rats [2]; 160 mg/kg oral, 1.5 h",37.90 °C
same,Rectal temperature,"rats [2]; 160 mg/kg oral, 2 h",37.34 °C
same,Rectal temperature,"rats [2]; 160 mg/kg oral, 2.5 h",37.50 °C
same,Rectal temperature,"rats [2]; 160 mg/kg oral, 3 h",37.41 °C
same,Rectal temperature,"rats [2]; 160 mg/kg oral, 19 h",36.75 °C
same,Rectal temperature,"rats [2]; 160 mg/kg oral, -4 h (before yeast)",36.06 °C
same,% Inhibition,rats [3]; 40 mg/kg oral,30%
same,% Inhibition,rats [3]; 80 mg/kg oral,32%
same,% Inhibition,rats [3]; 160 mg/kg oral,41.6%
same,Rectal temperature (normal rats),"rats [4]; 40 mg/kg oral, 0.5 h",36.02 °C
same,Rectal temperature (normal rats),"rats [4]; 40 mg/kg oral, 1 h",36.13 °C
same,Rectal temperature (normal rats),"rats [4]; 40 mg/kg oral, 1.5 h",36.10 °C
same,Rectal temperature (normal rats),"rats [4]; 40 mg/kg oral, 2 h",36.20 °C
same,Rectal temperature (normal rats),"rats [4]; 40 mg/kg oral, -0.5 h (before administration)",36.33 °C
same,Rectal temperature (normal rats),"rats [4]; 40 mg/kg oral, -1 h (before administration)",36.62 °C
same,Rectal temperature (normal rats),"rats [4]; 40 mg/kg oral, -1.5 h (before administration)",37.15 °C
same,Rectal temperature (normal rats),"rats [4]; 80 mg/kg oral, 0.5 h",36.14 °C
same,Rectal temperature (normal rats),"rats [4]; 80 mg/kg oral, 1 h",36.27 °C
same,Rectal temperature (normal rats),"rats [4]; 80 mg/kg oral, 1.5 h",36.31 °C
same,Rectal temperature (normal rats),"rats [4]; 80 mg/kg oral, 2 h",36.47 °C
same,Rectal temperature (normal rats),"rats [4]; 80 mg/kg oral, -0.5 h (before administration)",36.34 °C
same,Rectal temperature (normal rats),"rats [4]; 80 mg/kg oral, -1 h (before administration)",36.51 °C
same,Rectal temperature (normal rats),"rats [4]; 80 mg/kg oral, -1.5 h (before administration)",36.69 °C
same,Rectal temperature (normal rats),"rats [4]; 160 mg/kg oral, 0.5 h",35.62 °C
same,Rectal temperature (normal rats),"rats [4]; 160 mg/kg oral, 1 h",35.70 °C
same,Rectal temperature (normal rats),"rats [4]; 160 mg/kg oral, 1.5 h",35.92 °C
same,Rectal temperature (normal rats),"rats [4]; 160 mg/kg oral, 2 h",36.24 °C
same,Rectal temperature (normal rats),"rats [4]; 160 mg/kg oral, -0.5 h (before administration)",36.00 °C
same,Rectal temperature (normal rats),"rats [4]; 160 mg/kg oral, -1 h (before administration)",36.52 °C
same,Rectal temperature (normal rats),"rats [4]; 160 mg/kg oral, -1.5 h (before administration)",36.50 °C
same,"Body weight, mean ± standard deviation",rats [5]; 40 mg/kg oral,194.67 ± 7.43 grams
same,% animals with gastric lesions,rats [5]; 40 mg/kg oral,0%
same,"Body weight, mean ± standard deviation",rats [5]; 80 mg/kg oral,190.67 ± 8.84 grams
same,% animals with gastric lesions,rats [5]; 80 mg/kg oral,0%
same,"Body weight, mean ± standard deviation",rats [5]; 160 mg/kg oral,198.00 ± 11.46 grams
same,% animals with gastric lesions,rats [5]; 160 mg/kg oral,6.66%
same,"Body weight, mean ± standard deviation",rats [5]; 320 mg/kg oral,186.67 ± 7.24 grams
same,% animals with gastric lesions,rats [5]; 320 mg/kg oral,64.28%
